In patent US20140106390A1, “BIOMARKERS FOR THE TREATMENT OF MULTIPLE MYELOMA” (CELGENE CORPORATION, priority 2011, published 2014):

Columns and labels:
[1] = compared with the racemic mixture; cited from earlier work
serum M-protein = assay: Tumor growth inhibition (TGI) model for pomalidomide single agent fitted to serum M-protein data, Phase I/II pomalidomide study; type: in vivo, patients; details: population estimate
Protocol: The Phase I segment investigates whether pomalidomide single agent dose could be escalated up to 5 mg daily using the cyclic schedule. The Phase II segment has progression free survival (PFS) as the primary endpoint and an interim analysis is planned at 50% of the events.
A semi-mechanistic exposure-driven tumor growth inhibition (TGI) model was used to model serum M-protein data (taken as a marker of tumor size) as function of time and drug dose levels. The TGI model is described by the following differential equation system: […]
where y(t) is the at time t with y0 value at baseline (g/L),
KL, is the rate of M-protein level increase (tumor growth rate) (week^−1),
KD, is the rate of drug-induced M-protein decrease (drug potency, mg^−1.week^−1)
KD decreases with time (from KD,0 at time 0, full effect) with the rate constant λ, (week^−1)
D (t) is the amount of drug at the site of action (mg) (“KPD model”) (see Jacqim et al., J. Pharmacokinet. Pharmacodyn. (2007), 31: 57-85),
Kp is the elimination rate constant from the virtual biophase compartment (week^−1).
Model parameters were estimated by maximum likelihood in non-linear mixed effect model using NONMEM VI level 1.0 FOCE method with interaction (Beal et al., NONMEM user's guide. (1992) San Francisco: University of California at San Francisco NONMEM Project Group). […]

[2] = Phase Ib ascending dose study of pomalidomide (MTD); type: in vivo; details: 45 relapsed and refractory multiple myeloma patients
Protocol: M-protein measurements entered from data with pomalidomide in relapsed and refractory multiple myeloma patients consists of one completed and two ongoing studies. In a Phase Ib ascending dose study in 45 patients, the MTD of pomalidomide was 2 mg administered daily or 5 mg administered on an every other day schedule. These subjects tolerated alternate day dosing better than daily dosing based on dose-limiting toxicity (DLT), however, the AE profiles were similar for both dosing regimens.

In the case of `Nc1cccc2c1C(=O)N([C@H]1CCC(=O)NC1=O)C2=O` [(S)-isomer of 4-(amino)-2-(2,6-dioxo(3-piperidyl))-isoindoline-1,3-dione, (S)-4-(amino)-2-(2,6-dioxo(3-piperidyl))-isoindoline-1,3-dione], the potency [1] is listed as “higher potency than the racemic mixture”.
For `Nc1cccc2c1C(=O)N(C1CCC(=O)NC1=O)C2=O` (centres unmarked) [pomalidomide, 4-amino-2-(2,6-dioxopiperidin-3-yl)isoindole-1,3-dione], the “λ, rate constant of decrease of KD with time (resistance appearance), estimate” value (serum M-protein) was 0.128 wk^−1, the “KL, rate of M-protein level increase (tumor growth rate), estimate” value (serum M-protein; 37 patients) was 0.036 wk^−1 and the MTD ([2]; administered daily) was 2 mg. The MTD ([2]; administered on an every other day schedule) was 5 mg.
